{"source": "patent US7071337B2", "about": "“Benzoimidazole derivatives useful as antiproliferative agents” (Pfizer Inc, priority 2002, dated 2006)", "origin": "cited, not measured here", "key": {"[1]": {"system": "another carcinoma that does not express the EGF receptor", "conditions": "athymic nude mice"}, "[2]": {"system": "transplanted human mammary carcinoma that expresses epidermal growth factor receptor tyrosine kinase (EGFR)", "conditions": "athymic nude mice"}}, "data": [{"compound": "O=CN/C=C/c1cc(O)ccc1O", "note": "[erbstatin]", "values": [{"measurement": "growth of carcinoma not expressing the EGF receptor", "setting": "[1]", "result": "without effect on the growth"}, {"measurement": "growth of transplanted human mammary carcinoma expressing EGFR", "setting": "[2]", "result": "selectively attenuates the growth"}]}]}
